In US7365086B2, “Pramipexole acid addition salts” (Synthon IP Inc., priority 2003, dated 2008):
Where a name gives a salt, the structure may show the parent alone.

Assays:
[1] = Approximate water solubility of pramipexole acid addition salts (saturation in water, shaken overnight, evaporation and weighing); conditions: thermodynamic from solid
Experimental: In general the acid addition salt was added to 2 ml of water in a test tube (1 ml of water was used for some of the very soluble salts) until a residue remained. The tube was shaken overnight at room temperature. The next morning 1 ml of the clear solution from above the solid residue was removed from the tube. This sample was evaporated and the residue was dried and weighed. In this way the approximate solubility of the salt in the water was determined.

[2] = DVS, 25° C.
Experimental: The hygroscopicity was measured using a Dynamic Vapor Sorption apparatus or DVS (Surface Measurement Systems Ltd, UK) at 25° C. and at various controlled relative humidity conditions from 0 to 90%.
First the relative humidity was changed from 0% to 60% and back to 0% (cycle 1). Subsequently, the relative humidity was raised by steps of 10% until 90% and reduced with steps of 10% until 0% (cycle 2). Finally, the relative humidity was changed to 60% and back to 0% (cycle 3). At each step the sample was conditioned till constant weight.

solubility [1]: > 300 mg/mL
water uptake relative to dry mass at 60% relative humidity ([2]; 60% relative humidity): over 1.2%
total water uptake relative to the dry mass in the step from 70% and 80% relative humidity ([2]; 70% to 80% relative humidity): 5%
SMILES: CCCN[C@H]1CCc2nc(N)sc2C1 [Pramipexole dihydrochloride monohydrate, pramipexole dihydrochloride monohydrate]
